Measured values published in PMC6284238 (Neuron, 2017).

Molecular target: T1, zebrafish SARM1-TIR (Danio rerio, UniProt F1QWA8)
T1 sequence (F1QWA8 552-695 limits assumed): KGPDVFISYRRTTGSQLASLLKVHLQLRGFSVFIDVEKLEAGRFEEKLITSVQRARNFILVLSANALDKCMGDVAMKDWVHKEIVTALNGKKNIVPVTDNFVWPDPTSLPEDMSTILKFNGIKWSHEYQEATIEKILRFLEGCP
Experiment: NADase assay with HPLC, purified bacterial protein
Format: biochemical

SMILES: NC(=O)c1ccc[n+]([C@@H]2O[C@H](COP(=O)([O-])OP(=O)(O)OC[C@H]3O[C@@H](n4cnc5c(N)ncnc54)[C@H](O)[C@@H]3O)[C@@H](O)[C@H]2O)c1 [NAD^+]
- NADase assay with HPLC, purified bacterial protein: bacterially expressed mouse, zebrafish, and Drosophila SARM1-TIR domains also degrade NAD^+ in vitro
